Test results published in ChEMBL document CHEMBL4130634, “Discovery of Reversible DNA Methyltransferase and Lysine Methyltransferase G9a Inhibitors with Antitumoral in Vivo Efficacy” (J Med Chem, 2018).

What was measured:
[1] = target: T1, Histone-lysine N-methyltransferase EHMT2 (Homo sapiens, UniProt Q96KQ7); test: Inhibition of human G9a using biotinylated-H3K9 peptide as substrate after 1 hr in presence of SAM by TR-FRET assay
T1 sequence (Q96KQ7 whole entry): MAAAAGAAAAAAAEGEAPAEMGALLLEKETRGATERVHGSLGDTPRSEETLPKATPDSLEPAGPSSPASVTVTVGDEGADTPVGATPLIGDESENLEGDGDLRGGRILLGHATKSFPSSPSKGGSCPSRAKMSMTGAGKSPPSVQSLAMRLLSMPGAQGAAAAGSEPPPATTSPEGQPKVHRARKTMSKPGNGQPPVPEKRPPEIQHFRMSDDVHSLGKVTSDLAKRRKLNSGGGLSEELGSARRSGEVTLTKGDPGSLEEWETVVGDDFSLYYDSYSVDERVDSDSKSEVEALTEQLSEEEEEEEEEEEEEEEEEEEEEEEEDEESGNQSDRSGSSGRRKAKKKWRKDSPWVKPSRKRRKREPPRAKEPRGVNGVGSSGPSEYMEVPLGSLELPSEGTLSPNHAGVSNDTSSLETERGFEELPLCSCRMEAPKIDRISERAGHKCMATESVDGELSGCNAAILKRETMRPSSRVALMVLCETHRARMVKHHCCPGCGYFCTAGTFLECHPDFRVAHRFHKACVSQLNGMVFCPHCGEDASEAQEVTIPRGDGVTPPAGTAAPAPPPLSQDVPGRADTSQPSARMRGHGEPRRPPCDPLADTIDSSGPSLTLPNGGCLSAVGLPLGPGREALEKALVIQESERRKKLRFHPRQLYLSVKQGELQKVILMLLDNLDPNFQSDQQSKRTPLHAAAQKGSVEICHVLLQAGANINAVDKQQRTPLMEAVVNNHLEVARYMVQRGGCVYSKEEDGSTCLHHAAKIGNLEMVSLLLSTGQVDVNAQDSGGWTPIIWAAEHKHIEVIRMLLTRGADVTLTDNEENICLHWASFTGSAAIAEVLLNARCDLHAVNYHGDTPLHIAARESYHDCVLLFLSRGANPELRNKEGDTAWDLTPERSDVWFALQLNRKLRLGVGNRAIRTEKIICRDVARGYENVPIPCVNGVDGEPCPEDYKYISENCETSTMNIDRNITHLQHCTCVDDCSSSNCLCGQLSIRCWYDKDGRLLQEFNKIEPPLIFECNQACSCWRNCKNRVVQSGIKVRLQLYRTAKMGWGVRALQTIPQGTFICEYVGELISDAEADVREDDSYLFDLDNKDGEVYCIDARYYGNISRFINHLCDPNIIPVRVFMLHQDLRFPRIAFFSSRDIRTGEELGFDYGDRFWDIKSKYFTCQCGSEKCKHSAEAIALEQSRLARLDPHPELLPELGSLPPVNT

[2] = target: DNA (cytosine-5)-methyltransferase 1 (Homo sapiens, UniProt P26358); test: Inhibition of human DNMT1 using polydeoxyinosine polydeoxycytosine DNA as substrate after 15 mins in presence of SAM by TR-FRET assay
Sequence of DNA (cytosine-5)-methyltransferase 1 (P26358 whole entry): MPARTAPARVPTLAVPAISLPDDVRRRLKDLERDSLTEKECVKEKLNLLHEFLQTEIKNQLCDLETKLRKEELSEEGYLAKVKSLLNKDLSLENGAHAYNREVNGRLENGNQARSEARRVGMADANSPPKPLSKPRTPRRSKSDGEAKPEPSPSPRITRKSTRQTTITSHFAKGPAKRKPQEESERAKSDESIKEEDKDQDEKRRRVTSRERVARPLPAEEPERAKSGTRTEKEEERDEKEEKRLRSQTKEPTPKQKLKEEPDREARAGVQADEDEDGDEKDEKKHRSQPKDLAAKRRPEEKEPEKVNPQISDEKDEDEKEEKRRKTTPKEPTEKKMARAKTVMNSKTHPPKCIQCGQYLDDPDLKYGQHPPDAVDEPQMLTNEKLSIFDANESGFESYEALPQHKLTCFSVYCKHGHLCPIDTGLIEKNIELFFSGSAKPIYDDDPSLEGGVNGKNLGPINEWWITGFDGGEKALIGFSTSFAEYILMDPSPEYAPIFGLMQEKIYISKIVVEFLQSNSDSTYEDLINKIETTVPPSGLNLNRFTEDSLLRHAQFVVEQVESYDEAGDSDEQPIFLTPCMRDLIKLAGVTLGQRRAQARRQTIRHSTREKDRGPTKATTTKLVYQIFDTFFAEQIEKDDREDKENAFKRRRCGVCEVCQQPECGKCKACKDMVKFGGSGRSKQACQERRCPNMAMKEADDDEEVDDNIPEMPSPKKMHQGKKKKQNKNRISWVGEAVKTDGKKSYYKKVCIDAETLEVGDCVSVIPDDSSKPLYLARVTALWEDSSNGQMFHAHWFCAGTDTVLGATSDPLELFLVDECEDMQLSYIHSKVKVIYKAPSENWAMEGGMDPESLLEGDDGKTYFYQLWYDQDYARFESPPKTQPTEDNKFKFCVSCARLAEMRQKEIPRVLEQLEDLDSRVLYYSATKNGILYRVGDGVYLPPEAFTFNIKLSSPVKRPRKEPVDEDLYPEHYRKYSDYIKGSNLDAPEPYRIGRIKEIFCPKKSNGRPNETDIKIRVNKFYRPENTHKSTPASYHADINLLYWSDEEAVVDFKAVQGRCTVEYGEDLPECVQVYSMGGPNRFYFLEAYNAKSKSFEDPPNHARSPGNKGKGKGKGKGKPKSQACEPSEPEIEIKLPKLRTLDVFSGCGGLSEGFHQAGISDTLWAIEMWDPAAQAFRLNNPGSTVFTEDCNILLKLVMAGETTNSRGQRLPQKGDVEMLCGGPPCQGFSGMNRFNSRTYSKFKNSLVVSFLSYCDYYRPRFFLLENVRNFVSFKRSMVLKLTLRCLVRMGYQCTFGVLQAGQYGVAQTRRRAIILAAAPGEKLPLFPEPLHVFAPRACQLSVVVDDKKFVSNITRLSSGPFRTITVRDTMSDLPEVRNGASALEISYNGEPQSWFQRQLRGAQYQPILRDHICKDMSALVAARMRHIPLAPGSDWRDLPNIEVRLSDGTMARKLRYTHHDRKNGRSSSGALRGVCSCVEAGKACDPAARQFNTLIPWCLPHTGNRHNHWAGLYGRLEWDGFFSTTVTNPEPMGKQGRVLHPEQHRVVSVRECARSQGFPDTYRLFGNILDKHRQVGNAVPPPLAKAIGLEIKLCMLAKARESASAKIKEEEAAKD

[3] = Permeability of the compound at 50 uM after 18 hrs by PAMPA; assay type: ADME; details: read-out: permeability
[4] = Growth inhibition of human CEMO1 cells at 1 uM after 48 hrs by MTS assay relative to control; assay type: functional; details: read-out: GI
MV4-11 = test: Growth inhibition of human MV4-11 cells after 48 hrs by MTS assay; assay type: functional; details: MV4-11, 48 h
THLE-2 = test: Growth inhibition of human THLE2 cells after 72 hrs by MTS assay; assay type: cell-based; details: thle-2, 72 h
[5] = Growth inhibition of human LAL-CUN-2 cells at 1 uM after 48 hrs by MTS assay relative to control; assay type: functional; details: read-out: GI
OCI-Ly3 [6] = test: Growth inhibition of human OCI-LY3 cells at 1 uM after 48 hrs by MTS assay relative to control; assay type: functional; details: OCI-Ly3, 48 h, read-out: GI
OCI-Ly10 [7] = test: Growth inhibition of human OCI-LY10 cells at 1 uM after 48 hrs by MTS assay relative to control; assay type: functional; details: OCI-Ly10, 48 h, read-out: GI
[8] = Growth inhibition of human CEMO1 cells after 48 hrs by MTS assay; assay type: functional
OCI-Ly3 [9] = test: Growth inhibition of human OCI-LY3 cells after 48 hrs by MTS assay; assay type: functional; details: OCI-Ly3, 48 h
OCI-Ly10 [10] = test: Growth inhibition of human OCI-LY10 cells after 48 hrs by MTS assay; assay type: functional; details: OCI-Ly10, 48 h
[11] = Growth inhibition of human LAL-CUN-2 cells after 48 hrs by MTS assay; assay type: functional
[12] = Growth inhibition of human CEMO1 cells at 10 uM after 48 hrs by MTS assay relative to control; assay type: functional; details: read-out: GI

| IC50 [1] [nM] | IC50 [2] [nM] | SMILES | Papp at 18 h, 50 µM [3] [×10⁻⁶ cm/s] | inhibition of growth at 1 µM [4] [%] | also measured |
| --- | --- | --- | --- | --- | --- |
| 48 | 618 | CCNCc1ccc(-c2cc(NC3CCN(C)CC3)c3cc(OC)c(OCCCN4CCCC4)cc3n2)o1 | 0.13 | 0 | inhibition of growth at 1 µM [5]: 3%; inhibition of growth at 1 µM (OCI-Ly3 [6]): 0%; inhibition of growth at 1 µM (OCI-Ly10 [7]): 0% |
| 40 | 1410 | COc1cc2c(NC3CCN(C)CC3)cc(-c3cccnc3)nc2cc1OCCCN1CCCC1 | 0.22 | 0 | inhibition of growth at 1 µM [5]: 16%; inhibition of growth at 1 µM (OCI-Ly3 [6]): 12%; inhibition of growth at 1 µM (OCI-Ly10 [7]): 17% |
| 336 | 2250 | COc1cc2c(NC3CCN(C)CC3)nc(-c3ccc(C)o3)nc2cc1OCCCN1CCCC1 |  |  |  |
| 637 | > 10000 | COc1cc2c(NC3CCN(C)CC3)cc(C(F)(F)F)nc2cc1OCCCN1CCCC1 |  | 24 |  |
| 148 | 1270 | COc1cc2c(NC3CCN(C)CC3)cc(-c3ccc(CN(C)C)o3)nc2cc1OCCCN1CCCC1 |  |  |  |
| 136 | 2290 | COc1cc(NC2CCN(C)CC2)c2cc(OC)c(OCCCN3CCCC3)cc2n1 |  | 1 |  |
| 142 | 1250 | COc1cc2c(NC3CCN(C)CC3)cc(-c3cc[nH]c(=O)c3)nc2cc1OCCCN1CCCC1 |  |  |  |
| 42 | 945 | COc1cc2c(NC3CCN(C)CC3)cc(N3CCN(C)CC3)nc2cc1OCCCN1CCCC1 |  |  | inhibition of growth at 10 µM [12]: 14% |
|  | 300 | Nc1ncn([C@@H]2O[C@H](CO)[C@@H](O)[C@H]2O)c(=O)n1 [AZACITIDINE] |  |  |  |
| 12 | 957 | COc1cc2c(NC3CCN(C)CC3)cc(C3=CCOCC3)nc2cc1OCCCN1CCCC1 | 0.37 | 8 | inhibition of growth at 1 µM [5]: 0%; inhibition of growth at 1 µM (OCI-Ly3 [6]): 6%; inhibition of growth at 1 µM (OCI-Ly10 [7]): 16% |
| 44 | 969 | COc1cc2c(NC3CCN(C)CC3)cc(-c3ccn(C)n3)nc2cc1OCCCN1CCCC1 |  | 10 | inhibition of growth at 1 µM [5]: 16%; inhibition of growth at 1 µM (OCI-Ly3 [6]): 16%; inhibition of growth at 1 µM (OCI-Ly10 [7]): 0% |
| 2720 | 1050 | COc1cc2c(NC3CCN(C)CC3)cc(-c3ccc(-c4ccccc4)o3)nc2cc1OCCCN1CCCC1 |  |  |  |
| 52 | 582 | COc1cc2c(NC3CCN(C)CC3)cc(-c3ccccc3C)nc2cc1OCCCN1CCCC1 |  |  |  |
| 17 | 4420 | COc1cc2c(NC3CCN(C)CC3)cc(C3CCOCC3)nc2cc1OCCCN1CCCC1 | 0.22 | 20 | inhibition of growth at 1 µM [5]: 6%; inhibition of growth at 1 µM (OCI-Ly3 [6]): 0%; inhibition of growth at 1 µM (OCI-Ly10 [7]): 3% |

Further lines, the compound ahead of its results:

| SMILES | IC50 [1] [nM] | IC50 [2] [nM] | Papp at 18 h, 50 µM [3] [×10⁻⁶ cm/s] | inhibition of growth at 1 µM [4] [%] | also measured |
| --- | --- | --- | --- | --- | --- |
| COc1cc2c(NC3CCN(C)CC3)cc(C3CCCCC3)nc2cc1OCCCN1CCCC1 | 2 | 497 | 1.98 | 20 | GI50 (MV4-11): > 10000 nM; LC50 (THLE-2): 34800 nM |
| COc1cc2c(NC3CCN(C)CC3)cc(-c3ccccc3)nc2cc1OCCCN1CCCC1 | 15 | 1050 | 1.69 |  | GI50 [8]: 658 nM; inhibition of growth at 1 µM [5]: 7%; GI50 (OCI-Ly3 [9]): 717 nM; GI50 (OCI-Ly10 [10]): 420 nM; GI50 (MV4-11): 2600 nM; LC50 (THLE-2): 5620 nM |
| COc1cc2c(NC3CCN(C)CC3)cc(C3=CCCCC3)nc2cc1OCCCN1CCCC1 | 6 | 494 | 2.09 |  | GI50 [8]: 1180 nM; GI50 [11]: 4290 nM; LC50 (THLE-2): 7580 nM |
| COc1cc2c(NC3CCN(C)CC3)cc(C3CCC(C)O3)nc2cc1OCCCN1CCCC1 (configuration not stated) | 27 | 1370 |  |  |  |
| COc1cc2c(NC3CCN(C)CC3)cc(-c3ccnn3C)nc2cc1OCCCN1CCCC1 | 1080 | > 10000 | 0.09 |  |  |
| COc1cc2c(NC3CCN(C)CC3)cc(-c3ccc(C)[nH]3)nc2cc1OCCCN1CCCC1 | 0.5 | 232 |  |  | GI50 [8]: 1650 nM; inhibition of growth at 1 µM [5]: 12%; GI50 (OCI-Ly3 [9]): 896 nM; GI50 (OCI-Ly10 [10]): 915 nM; LC50 (THLE-2): 7680 nM |
| COc1cc2c(NC3CCNCC3)cc(-c3ccc(C)o3)nc2cc1OCCCN1CCCC1 | 6 | 137 | 0.2 |  | GI50 [8]: 1980 nM; GI50 [11]: > 5000 nM; GI50 (OCI-Ly3 [9]): 1270 nM; GI50 (OCI-Ly10 [10]): > 4000 nM; LC50 (THLE-2): 8850 nM |
| COc1cc2c(NC3CCN(C)CC3)cc(-c3ccc(CO)o3)nc2cc1OCCCN1CCCC1 | 15 | 759 | 0.05 | 0 | inhibition of growth at 1 µM [5]: 19%; inhibition of growth at 1 µM (OCI-Ly3 [6]): 26%; inhibition of growth at 1 µM (OCI-Ly10 [7]): 1% |
| COc1cc2c(NC3CCN(C)CC3)cc(-c3ccc(C#N)o3)nc2cc1OCCCN1CCCC1 | 264 | 1600 |  |  |  |
| Nc1ncn([C@H]2C[C@H](O)[C@@H](CO)O2)c(=O)n1 [DECITABINE] |  | 30 |  |  |  |
| COc1cc2c(NC3CCN(C)CC3)cc(-c3cc4ccccc4o3)nc2cc1OCCCN1CCCC1 | 3140 | 1070 |  |  |  |
| COc1cc2c(NC3CCN(C)CC3)cc(C)nc2cc1OCCCN1CCCC1 | 6 | 929 |  |  | inhibition of growth at 10 µM [12]: 14% |
| COc1cc2c(NC3CCN(C)CC3)cc(-c3ccc(C)s3)nc2cc1OCCCN1CCCC1 | 43 | 230 | 2.91 |  | GI50 [8]: 555 nM; inhibition of growth at 1 µM (OCI-Ly3 [6]): 21%; inhibition of growth at 1 µM (OCI-Ly10 [7]): 42%; GI50 (MV4-11): 3100 nM; LC50 (THLE-2): 4060 nM |
| CCc1ccc(-c2cc(NC3CCN(C(C)C)CC3)c3cc(OC)c(OCCCN4CCCC4)cc3n2)o1 | 3 | 284 | 3.83 |  | GI50 [8]: 441 nM; GI50 (MV4-11): 971 nM; LC50 (THLE-2): 1720 nM |
| CCc1ccc(-c2cc(NC3CCN(C4CC4)CC3)c3cc(OC)c(OCCCN4CCCC4)cc3n2)o1 | 24 | 274 | 5.56 |  | GI50 [8]: 917 nM; GI50 (OCI-Ly3 [9]): 1560 nM; GI50 (OCI-Ly10 [10]): 236 nM; GI50 (MV4-11): 3510 nM; LC50 (THLE-2): 703 nM |
